Measurements from patent US20240335373A1, “Methods, Systems and Devices for Post-Fabrication Drug Loading” (THE UNIVERSITY OF NORTH CAROLINA AT CHAPEL HILL, priority 2020, published 2024).
In brackets after ≈: the same amount, converted by molar mass.

Legend:
[1] = Drug loading of post-loaded SIL 30 diffusion blocks, solvent extraction and HPLC; assay type: physicochemical; conditions: for Drug Loading / Wt. % Loading: loaded 5 mg/mL in acetone 24 hr
Method: Loading. […] . Solutions of 5 mg/mL of drug in acetone were prepared and validated via HPLC. […] Blocks were then divided into an extraction set and a release set.
Extraction. Drug-loaded blocks were extracted using methods previously described in Section 2.6 using acetone as the extraction solvent. Aliquots were collected and analyzed with HPLC. Weight percent loading was determined as the total drug extracted relative to the mass of the dried blocks.
Block types 6.0 and 7.6 mm (n=8 of each type) were fabricated in SIL 30. A solution containing 8.562 mg/mL of 4′-ethynyl-2-fluoro-2′-deoxyadenosine (EFdA) in acetone was prepared and validated via HPLC. Blocks were batch immersed in post-loading solution for up to 24 hr. Blocks were divided into extraction (n=4) and release (n=4) sets. EFdA was extracted from blocks in acetone as previously described and quantified with HPLC. Release blocks were individually immersed in 60 mL of SVF and placed in an incubator at 37° C. Aliquots and analysis were completed using methods previously described. EFdA was quantified with HPLC, eluting at 5.31 min at 265 nm.
A test part described as a diffusion block with dimensions in X, Y, and Z of 10 mm, 20 mm, and 4 mm, respectively, was primarily used. The general flow of the post-loading process is outlined in FIG. 6A. The initial metrics of dimensional and mass measurements were taken for every block used prior to loading or testing. The block was then immersed in a post-loading solution containing a known concentration of the API for a specified duration. The part was removed and measured for swollen metrics. An aliquot of the post-loading solution following part removal was taken for HPLC analysis. The part was then dried in an oven to remove the post-loading solvent, after which the part was measured for dried metrics. These metrics serve as check points to precisely investigate part behavior throughout the post-loading process, specifically dimensional deformations. Once the part was post-loaded it can either be tested for total drug content via an extraction process, outlined in FIG. 6B, or tested for drug release in simulated vaginal fluid (SVF), outlined in FIG. 6C. Aliquots from both processes are taken for HPLC analysis.
. For these samples, metrics were taken and aliquots were analyzed via HPLC on a C18 column with an optimized method. Extraction aliquots and post-loading solution aliquots were diluted in acetonitrile (ACN) at 1:100 while release samples were analyzed as is. Extracted material includes both the incorporated drug (β-estradiol) as well as leachables/extractables. […] .
Blocks were further assessed by quantifying the extracted drug via HPLC. The total amount of drug extracted, weight percent loading and loading efficiency were calculated and averaged, with variation described by % RSD. Overall, a slight decrease in loading metrics was observed as a function of loading order. However, once averaged out, these values yielded minimal variability. Additionally, values shown are in-line with those obtained during the reproducibility study (Section 3.2) for methanol.
Both pre-loaded and post-loaded blocks were extracted in 20 mL of EtOH for 72 hours. Aliquots were taken and analyzed via HPLC. […] . […] Therefore, for the sake of consistency between previous results and subsequently prepared samples, loading values obtained in Round II were used for all calculations.

[2] = In vivo PK of EFdA-loaded IVRs in macaques; conditions: female pigtailed macaques, 28 days
Method: Macaque size (25 mm OD) 3D printed IVRs post-loaded with EFdA at 45 mg/IVR or 62 mg/IVR were administered to female pigtailed macaques and plasma, PBMCs, vagina and rectal fluids, and vaginal and rectal biopsies were collected over 28 days and analyzed for EFdA concentration and EFdA-TP (triphosphorilated EFdA, EFdA-TP) in PBMCs.

[3] = In vitro release from drug-loaded blocks or ring sections in simulated vaginal fluid (SVF); assay type: physicochemical; conditions: for Drug Release at Zero Order Mass/Day / Drug Release at Zero Order Percent/Day: linear regression from Day 2
[4] = cited from earlier work
physchem = conditions: organic solvent or mixture
[5] = SIL 30 block 6.21 ± 0.03 mm, 8.562 mg/mL in acetone
[6] = SIL 30 block 6.21 ± 0.03 mm, 8.562 mg/mL in acetone up to 24 hr
[7] = SIL 30 block 7.62 ± 0.03 mm, 8.562 mg/mL in acetone
[8] = SIL 30 block 7.62 ± 0.03 mm, 8.562 mg/mL in acetone up to 24 hr
[9] = SIL 30 block 6.29 ± 0.04 mm, 5 mg/mL in acetone
[10] = SIL 30 block 6.29 ± 0.04 mm, 5 mg/mL in acetone 24 hr
[11] = SIL 30 block 7.81 ± 0.08 mm, 5 mg/mL in acetone
[12] = SIL 30 block 7.81 ± 0.08 mm, 5 mg/mL in acetone 24 hr

SMILES: C#C[C@]1(CO)O[C@@H](n2cnc3c(N)nc(F)nc32)C[C@@H]1O [EFdA, 4′-ethynyl-2-fluoro-2′-deoxyadenosine]
- Normalized Delta SSA [1, 5]: −150.63 ± 4.00
- Normalized Wt. % by S-SSA [1, 5]: 81.4 ± 2.26
- Drug [1, 6]: 32.76 ± 0.76 mg
- Loading [1, 6]: 2.41 ± 0.06 Wt. %
- Normalized Delta SSA [1, 7]: −195.95 ± 4.41
- Normalized Wt. % by S-SSA [1, 7]: 99.91 ± 3.67
- Drug [1, 8]: 36.91 ± 1.18 mg
- Loading [1, 8]: 2.15 ± 0.07 Wt. %
- EFdA levels in tissue and fluid samples ([2]; 45 mg/IVR or 62 mg/IVR): above the known efficacious levels
- EFdA-TP levels in PBMCs ([2]; 45 mg/IVR or 62 mg/IVR): above the known efficacious levels
- PK levels ([2]; 62 mg vs 45 mg EFdA IVR): dose dependent

SMILES: Nc1nc(F)nc2c1ncn2[C@H]1C[C@H](O)[C@@H](CO)O1 [FdA, 2-fluoro-2′-deoxyadenosine]
- Normalized Delta SSA [1, 9]: −91.19 ± 7.35
- Normalized Wt. % by S-SSA [1, 9]: 47.53 ± 3.10
- Drug [1, 10]: 18.95 ± 1.28 mg
- Loading [1, 10]: 1.43 ± 0.10 Wt. %
- Normalized Delta SSA [1, 11]: −103.29 ± 2.04
- Normalized Wt. % by S-SSA [1, 11]: 52.82 ± 1.47
- Drug [1, 12]: 19.38 ± 0.54 mg
- Loading [1, 12]: 1.19 ± 0.03 Wt. %
- Drug Loading ([1]; block 0.65 ± 0.01 mm): 2.07 ± 0.06 mg
- Wt. % Loading ([1]; block 0.65 ± 0.01 mm): 1.71 ± 0.07 Wt. %
- Drug Loading ([1]; block 1.51 ± 0.01 mm): 4.07 ± 0.19 mg
- Wt. % Loading ([1]; block 1.51 ± 0.01 mm): 1.60 ± 0.07 Wt. %
- Drug Loading ([1]; block 2.32 ± 0.02 mm): 6.46 ± 0.17 mg
- Wt. % Loading ([1]; block 2.32 ± 0.02 mm): 1.46 ± 0.04 Wt. %
- Drug Loading ([1]; block 3.26 ± 0.03 mm): 9.68 ± 0.70 mg
- Wt. % Loading ([1]; block 3.26 ± 0.03 mm): 1.52 ± 0.11 Wt. %
- Drug Loading ([1]; block 4.28 ± 0.04 mm): 14.42 ± 1.21 mg
- Wt. % Loading ([1]; block 4.28 ± 0.04 mm): 1.62 ± 0.14 Wt. %
- Drug Loading ([1]; block 6.29 ± 0.04 mm): 18.95 ± 1.28 mg
- Wt. % Loading ([1]; block 6.29 ± 0.04 mm): 1.43 ± 0.10 Wt. %
- Drug Loading ([1]; block 7.81 ± 0.08 mm): 19.38 ± 0.54 mg
- Wt. % Loading ([1]; block 7.81 ± 0.08 mm): 1.19 ± 0.03 Wt. %
- release profile ([3]; all post-loaded SIL 30 block types, SVF): linear and sustained release following an initial burst
- Drug Release at Zero Order Mass/Day ([3]; block 2.32 ± 0.02 mm, SVF): 406.25 ± 19.80 µg/day
- Drug Release at Zero Order Percent/Day ([3]; block 2.32 ± 0.02 mm, SVF): 6.40 ± 0.20 Percent/Day
- Drug Release at Zero Order Mass/Day ([3]; block 3.26 ± 0.03 mm, SVF): 423.43 ± 17.17 µg/day
- Drug Release at Zero Order Percent/Day ([3]; block 3.26 ± 0.03 mm, SVF): 3.94 ± 0.06 Percent/Day
- Drug Release at Zero Order Mass/Day ([3]; block 4.28 ± 0.04 mm, SVF): 450.51 ± 16.45 µg/day
- Drug Release at Zero Order Percent/Day ([3]; block 4.28 ± 0.04 mm, SVF): 2.93 ± 0.03 Percent/Day
- Drug Release at Zero Order Mass/Day ([3]; block 6.29 ± 0.04 mm, SVF): 453.56 ± 20.13 µg/day
- Drug Release at Zero Order Percent/Day ([3]; block 6.29 ± 0.04 mm, SVF): 2.26 ± 0.01 Percent/Day
- Drug Release at Zero Order Mass/Day ([3]; block 7.81 ± 0.08 mm, SVF): 454.52 ± 20.34 µg/day
- Drug Release at Zero Order Percent/Day ([3]; block 7.81 ± 0.08 mm, SVF): 1.86 ± 0.04 Percent/Day
- percent burst release normalized by SSA ([3]; post-loaded SIL 30 blocks, all block distances, normalized by placebo SSA in SVF): around 40%
- percent burst release plateau ([3]; post-loaded SIL 30 blocks, larger block distances, SVF, first 24 hrs): 22%
- log p [4]: −0.57
- solubility (physchem): 9500 µg/mL (≈ 35.3 mM)

SMILES: C[C@]12CC[C@@H]3c4ccc(O)cc4CC[C@H]3[C@@H]1CC[C@@H]2O [β-Estradiol, β-estradiol]
- log p [4]: 3.75
